# Measured values reported in patent publication US20070066580A1, “Novel aldosterone antagonists and uses thereof” (Recordati Ireland Limited, priority 2005, published 2007).
# How the values were obtained:
# MR = biological target: T1, MR (Homo sapiens, UniProt P08235); details: cited from earlier work
# T1 sequence (P08235 1-984): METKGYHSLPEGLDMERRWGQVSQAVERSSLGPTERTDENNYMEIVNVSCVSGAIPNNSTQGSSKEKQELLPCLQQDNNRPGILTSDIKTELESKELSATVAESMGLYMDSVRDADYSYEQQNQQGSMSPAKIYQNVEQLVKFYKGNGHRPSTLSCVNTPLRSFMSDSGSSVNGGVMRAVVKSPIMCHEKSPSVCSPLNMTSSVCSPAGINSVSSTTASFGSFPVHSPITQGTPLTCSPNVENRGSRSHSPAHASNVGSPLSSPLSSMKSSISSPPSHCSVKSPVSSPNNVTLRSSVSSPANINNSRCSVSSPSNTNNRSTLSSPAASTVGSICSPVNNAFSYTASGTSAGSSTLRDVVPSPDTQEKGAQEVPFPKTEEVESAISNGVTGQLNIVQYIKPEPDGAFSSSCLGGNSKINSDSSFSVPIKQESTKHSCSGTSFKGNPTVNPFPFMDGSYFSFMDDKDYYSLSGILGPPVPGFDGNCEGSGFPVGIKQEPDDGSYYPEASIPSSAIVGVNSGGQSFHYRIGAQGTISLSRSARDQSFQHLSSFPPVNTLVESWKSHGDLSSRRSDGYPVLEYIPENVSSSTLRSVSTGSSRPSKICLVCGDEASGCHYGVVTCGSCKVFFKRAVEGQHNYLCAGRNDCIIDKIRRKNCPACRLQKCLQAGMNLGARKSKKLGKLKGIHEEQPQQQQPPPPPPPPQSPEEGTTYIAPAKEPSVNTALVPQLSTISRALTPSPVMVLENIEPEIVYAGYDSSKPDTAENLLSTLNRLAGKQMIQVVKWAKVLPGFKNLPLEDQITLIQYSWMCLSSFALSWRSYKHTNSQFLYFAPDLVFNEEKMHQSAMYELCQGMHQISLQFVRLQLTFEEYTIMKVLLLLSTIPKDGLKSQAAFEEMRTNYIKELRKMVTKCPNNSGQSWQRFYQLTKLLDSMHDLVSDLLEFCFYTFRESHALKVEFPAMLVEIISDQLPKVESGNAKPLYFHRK
# [1] = biological target: T2, ligand binding domain of the human mineralocorticoid receptor (hMR LBD) (Homo sapiens, UniProt P08235); assay: Mineralocorticoid receptor (MR) in vitro competitive binding assay, [3H]aldosterone displacement; details: IR^TOTAL = sum of IR^AR/MR, IR^ER/MR, IR^GR/MR, IR^PR/MR
# T2 construct: made in house; host or cells: Sf9 insect cells (baculovirus, pFastBac)
# T2 sequence (P08235 729-984): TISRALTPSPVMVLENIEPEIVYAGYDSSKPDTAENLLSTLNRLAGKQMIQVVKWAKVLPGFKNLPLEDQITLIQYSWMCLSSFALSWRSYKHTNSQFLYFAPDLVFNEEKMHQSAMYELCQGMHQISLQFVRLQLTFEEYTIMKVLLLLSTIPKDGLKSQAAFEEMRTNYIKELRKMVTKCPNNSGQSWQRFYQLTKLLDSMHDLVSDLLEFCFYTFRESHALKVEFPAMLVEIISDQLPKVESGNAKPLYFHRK
# Description: Mineralocorticoid receptor (MR) binding assay: Spodoptera furgiperda (Sf9) insect cells (ATCC accession number CRL-1711) were maintained in culture in EX-CELL™ 420 serum free medium (JRH Biosciences, Inc.) at 27° C.
# A recombinant baculovirus containing nucleotide sequences encoding the ligand binding domain of the human mineralocorticoid receptor (hMR) cloned into the pFastBac™ vector was generated using the Bac-to-Bac® Baculovirus Expression System Kit (Invitrogen) following the manufacturer's instructions. This recombinant baculovirus contains nucleotides 2401 through 3168 (SEQ ID NO: 13) of hMR, providing for expression of the ligand binding domain (LBD), amino acid residues 729-984 (SEQ ID NO: 14), of hMR (hMR LBD). Cultured Sf9 insect cells were transfected with this recombinant baculovirus following the manufacturer's instructions.
# For the binding assay, a crude lysate of the hMR LBD-expressing insect cells was prepared. The crude lysate was diluted 12.5-fold with binding buffer (20 mM Tris-HCl pH 7.4, 1 mM EDTA, 1 mM dithiothreitol, 20 mM sodium tungstate, 50 mM KCl and 10% glycerol).
# For the negative control sample, the diluted lysate was incubated with a 10 nM final concentration of the radioligand [1,2,6,7-^3H] aldosterone (Amersham Biosciences, catalogue # 434) for 3.5 h at 4° C. For test compounds and the positive control sample, the diluted lysate was incubated with various concentrations of test compound or with a 20 μM final concentration of spironolactone (Sigma, S-3378) as a reference compound for 45 min on ice, and was then incubated with a 10 nM final concentration of [1,2,6,7-^3H] aldosterone for 3.5 h at 4° C.
# Using a CellHarvester (PerkinElmer, formerly Packard Biosciences), receptor/ligand complexes were retained on 96-well GF/B filters (PerkinElmer, formerly Packard Biosciences) while free radioligand passed through the filters. Scintillation counting of GF/B filter plates was performed using a TopCount NXT (PerkinElmer, formerly Packard Biosciences) to quantitate the amount of [1,2,6,7-^3H] aldosterone bound to the hMR LBD.
# The IC50 of a test compound was determined from the concentration of test compound giving half-maximal displacement as obtained by nonlinear least-squares curve fitting to a one-site binding sigmoidal model using Prism 3.0 (Graph Pad Software, Inc., San Diego, US). The calculated IC50 values represent the average values calculated from the results of 1-3 experiments carried out in duplicate.
# IC50 and inhibitory ratio calculations: To provide a measure of the potency of each test compound as an antagonist of MR, the IC50 of each test compound (IC50^Test) for ligand binding to MR and the IC50 of the known MR antagonists eplerenone (IC50^Ep) and spironolactone (IC50^Sp) for ligand binding to MR were used to calculate an IC50 ratio (RIC50) according to the following equations: RIC50^Ep/Test=IC50^Ep/IC50^Test and RIC50^Sp/Test=IC50^Sp/IC50^Test.
# These individual inhibitory ratios were used to calculate a total inhibitory ratio (IR^TOTAL) according to the following equation: IR^TOTAL=IR^AR/MR+IR^ER/MR+IR^GR/MR+IR^PR/MR. B. Results and Discussion
# [2] = biological target: T3, GAL4 DBD-hMR LBD fusion protein (Homo sapiens, UniProt P08235); assay: Cell-based luciferase assay, agonist mode (CV-1 cells); details: 10 μM of compound
# T3 construct: expressed in transfected cells; host or cells: CV-1 cells (African green monkey kidney), transient co-transfection with pCMX-GAL4-based vector and Galp3TKLuc reporter
# T3 sequence (P08235 with tags, fused parts or gaps limits assumed): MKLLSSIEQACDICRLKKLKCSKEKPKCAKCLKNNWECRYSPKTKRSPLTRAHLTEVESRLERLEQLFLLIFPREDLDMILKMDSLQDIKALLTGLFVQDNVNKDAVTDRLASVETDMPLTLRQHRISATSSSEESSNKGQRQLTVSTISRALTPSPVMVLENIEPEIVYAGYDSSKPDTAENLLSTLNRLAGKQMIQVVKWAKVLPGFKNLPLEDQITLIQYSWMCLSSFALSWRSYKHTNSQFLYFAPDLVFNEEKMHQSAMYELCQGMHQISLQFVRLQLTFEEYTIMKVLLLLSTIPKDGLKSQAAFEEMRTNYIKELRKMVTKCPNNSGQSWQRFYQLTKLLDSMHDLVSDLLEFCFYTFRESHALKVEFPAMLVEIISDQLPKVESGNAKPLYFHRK
# Text: GAL4 DBD-hMR LBD fusion protein expression vector: A pCMX-GAL4-based vector was used for the expression of a fusion protein composed of the amino acids 1-147 of the DNA binding domain of Saccharomyces cerevisiae GAL4 (GAL4 DBD) (SEQ ID NO: 16) and amino acid residues 729-984 of the ligand binding domain of human mineralocorticoid receptor (hMR LBD) (SEQ ID NO: 14). The expression vector contained an expression cassette of the nucleotide sequence for the GAL4 DBD (See SEQ ID NO: 19) ligated to nucleotides 2401 through 3168 of the human mineralocorticoid (hMR) receptor (SEQ ID NO: 13).
# In vitro cell culture: CV-1 cells (African green monkey kidney cell line, ATCC accession number CCL-70) were maintained in culture in 90% DMEM medium supplemented by 9% FCS and 1% Penicillin-Streptomycin-L-Glutamine at 37° C. under 8.5% CO2.
# These cells were transiently co-transfected with the GAL4 DBD-hMR LBD fusion protein expression vector and the Galp3TKLuc reporter gene vector using the FuGENE 6 Transfection Reagent (Roche) according to the manufacturer's instructions.
# Agonist assay: As a positive control, aldosterone (Acros Organics, catalogue # 215360050) was used at a concentration of 100 nM. The negative control sample was 90% DMEM medium supplemented by 9% charcoal-treated FCS and 1% Penicillin-Streptomycin-L-Glutamine containing 0.2% DMSO plus 0.02% ethanol. Positive control, negative control, or 10 μM final concentration of test compound was added to the cells and incubated for 24 hours at 37° C. under 8.5% CO2 before the Luciferase substrate (Promega, catalogue number #E2620) was added. After an incubation period of 5 min at RT, luminescence signals were read on a microplate reader (Molecular Devices/LJL Biosystems). Negative and positive controls were defined as 0% and 100% agonism, respectively. The agonistic potency of test compounds is given in % and was normalized to the positive and negative controls.
# [3] = severe heart failure (NYHA class IV), plus diuretics, versus placebo plus diuretics; cited from earlier work
# [4] = cited from earlier work
smiles,measurement,setting,value
C[C@]12CCC(=O)C=C1[C@@H]1C[C@@H]1[C@H]1[C@@H]3[C@@H]4C[C@@H]4[C@@]4(CCC(=O)O4)[C@@]3(C)CC[C@@H]12,"antimineralocorticoid potency, times more potent than spironolactone",MR,approximately 7.5 times
CCC[C@@H]1CC2=CC(=O)CC[C@]2(C)C2=CC[C@@]3(C)C(C21)[C@@H]1C[C@@H]1[C@@]31CCC(=O)O1 (some centres unmarked) [Example 70],IR^TOTAL compared with the IR^TOTAL for eplerenone,[1],at least an order of magnitude greater than the IR^TOTAL for eplerenone
same,IR^TOTAL compared with the IR^TOTAL for spironolactone,[1],at least an order of magnitude greater than the IR^TOTAL for spironolactone
same,potency for activation of MR relative to aldosterone,[2],at least three orders of magnitude less potent than aldosterone
CC(=O)S[C@@H]1CC2=CC(=O)C=C[C@]2(C)[C@H]2CC[C@@]3(C)[C@@H]([C@@H]4C[C@@H]4[C@@]34CCC(=O)O4)[C@H]12 [Mespirenone],anti-MR effectiveness compared with spironolactone,MR,about three times higher
CCOC(=O)[C@H](CCc1ccccc1)N[C@@H](C)C(=O)N1CCC[C@H]1C(=O)O [enalapril],reduction of mortality at one year,[3],31%
COC(=O)[C@@H]1CC2=CC(=O)CC[C@]2(C)[C@@]23O[C@@H]2C[C@@]2(C)[C@@H](CC[C@@]24CCC(=O)O4)[C@H]13 [eplerenone],potency in vivo as % of spironolactone,[4],50-75%
C[C@]12C=CC(=O)C=C1[C@@H]1C[C@@H]1[C@H]1[C@@H]3[C@@H]4C[C@@H]4[C@@]4(CCC(=O)O4)[C@@]3(C)CC[C@@H]12 [spirorenone],"antimineralocorticoid potency, times more potent than spironolactone",MR,approximately 7.5 times
